Results reported in patent publication US4957730A, “Antimycotic nail varnish” (Hoechst Aktiengesellschaft, priority 1985, dated 1990).
≈ marks a conversion by molar mass, not a printed value.

Key:
[1] = system: Trichophyton mentagrophytes 109 (100/25); assay: in vitro series dilution test (MIC); format: cell-based; conditions: T. mentagrophytes
Description: (§1) The results of these experiments are shown in Table 1 in comparison with the efficacy of the pyridone compounds against the highly virulent skin fungus Trichophyton mentagrophytes 109 (100/25) in the in vitro series dilution test and in the guinea pig trichophytosis model.
*Minimum inhibitory concentration (MIC) in the series dilution test

[2] = system: Trichophyton mentagrophytes 109 (100/25); assay: guinea pig trichophytosis model, inhibition on the skin surface; parameters: concentration or dose not given beside the values; conditions: in vivo
Description: as §1
**Percentage inhibition on the skin surface in the guinea pig
Trichophytosis model (W. Dittmar, Mykosen 18 (8), 351-361 (1975)

T. mentagrophytes = assay: penetration test on excised pig skin: growth inhibition in the lowest region of the horny layer
Procedure: The test method for penetration capacity on excised skin from pigs enables the capacity to penetrate of an effective concentration of compounds horny tissue to be tested.
(§2) In the tests for the penetration capacity, the surface of shaved pieces of skin was first treated with 0.3% strength solutions of the compounds 1-8 and likewise with three similar compounds not claimed, in each case dissolved in a mixture of 1 ml of dimethyl sulfoxide and 9 ml of isopropanol, at room temperature and was washed again after 2 hours. The lowest region of the horny layer was then exposed by removing the superficial layers by peeling off with adhesive strips ten times in succession. The deep-lying horny layer now exposed was inoculated with virulent pathogens of nail mycoses (dermatophytes). Conclusions as to the level of the penetration capacity were drawn on the basis of the degree of growth inhibition found.
as §1
***Horny layer penetration: percentage growth inhibition by the substance
which has penetrated into the lowest part of the horny layer.
(§3) *Time between application of the product and stripping of the skin

[3] = system: Trichophyton mentagrophytes; assay: penetration test on horny human skin with nail varnishes: growth inhibition in the deep horny layer; conditions: for growth inhibition of Trichophyton mentagrophytes in the deep lying horny layer of human skin: in words, 1 or 2 hours
Procedure: as §2
In further experiments, the substantially thicker horny human skin was treated by the test method described above at room temperature for 1 or 2 hours with 3% strength nail varnishes of compounds 9 and 10 and likewise with a similar compound 4, which is not claimed, in comparison with the abovementioned nail varnish containing sulbentine. The varnish base of examples 9 and 10 and of comparison 4 and 5 was prepared by mixing the following constituents:
2-Hydroxy-4-methoxybenzophenone: 0.1%
Sodium dioctyl sulfosuccinate: 1.0%
50% strength solution of a copolymer of methyl vinyl ether and monobutyl maleate in isopropyl alcohol: 30.0%
as §3

[4] = Table 1, pig skin, 0.3% strength solutions, washed after 2 hours, lowest part of horny layer
[5] = humans, 3% strength varnishes, action time 60 min
[6] = humans, 3% strength varnishes, action time 120 min

| SMILES | MIC [1] [µg/mL] | Inhibition (%) on skin [2] | Inhibition (%) in the horny layer (T. mentagrophytes; [4]) | other results |
| --- | --- | --- | --- | --- |
| CCCCCCCCCCCc1cc(C)cc(=O)n1O [Comparison 2, reference compound] | 3.9 (≈ 14 µM) | 100,0% | 9,8% | Inhibition (%) in the deep horny layer (T. mentagrophytes; 2 h): 9,8%; Inhibition (%) in the deep horny layer [3, 5]: 51,4%; Inhibition (%) in the deep horny layer [3, 6]: 49,4%; growth inhibition of Trichophyton mentagrophytes in the deep lying horny layer of human skin ([3]; 3% strength varnishes): only an inadequate inhibiting effect |
| Cc1cc(CCCCc2ccccc2)n(O)c(=O)c1 [Comparison 3, reference compound] | 3.9 (≈ 15.2 µM) | 88,0% | 24,2% |  |
| Cc1ccc(Cc2cc(C)c(C)c(=O)n2O)c(C)c1 [Example 7] | 1.95 (≈ 7.58 µM) | 88,8% | 80,0% |  |
| Cc1cc(CCc2ccccc2)n(O)c(=O)c1 [Example 8] | 1.95 (≈ 8.5 µM) | 88,0% | 81,9% |  |
| Cc1cc(CC(C)CC(C)(C)C)n(O)c(=O)c1 (stereo not drawn) [Example 9] |  |  |  | Inhibition (%) in the deep horny layer (T. mentagrophytes; 2 h): 99,6%; Inhibition (%) in the deep horny layer ([3]; 1 h): 99,0%; Inhibition (%) in the deep horny layer ([3]; 2 h): 99,9%; growth inhibition of Trichophyton mentagrophytes in the deep lying horny layer of human skin ([3]; 3% strength varnishes): almost completely or completely inhibit the growth |
| Cc1cc(C2CCCCC2)n(O)c(=O)c1 [Example 10] |  |  |  | Inhibition (%) in the deep horny layer (T. mentagrophytes; 2 h): 98,0%; Inhibition (%) in the deep horny layer [3, 5]: 100,0%; Inhibition (%) in the deep horny layer [3, 6]: 100,0%; growth inhibition of Trichophyton mentagrophytes in the deep lying horny layer of human skin ([3]; 3% strength varnishes): almost completely or completely inhibit the growth |

Continued by falling MIC [1], values first:

| MIC [1] [µg/mL] | SMILES | Inhibition (%) on skin [2] | Inhibition (%) in the horny layer (T. mentagrophytes; [4]) | other results |
| --- | --- | --- | --- | --- |
| 1.95 (≈ 11.7 µM) | Cc1cc(C(C)C)n(O)c(=O)c1 [Comparison 1, reference compound] | 75,0% | 35,7% |  |
| 1.95 (≈ 8.73 µM) | CCCCCCCc1cc(C)cc(=O)n1O [Example 1] | 89,4% | 97,0% |  |
| 1.95 (≈ 8.73 µM) | CCCCC(CC)c1cc(C)cc(=O)n1O (stereo not drawn) [Example 2] | 85,6% |  | Inhibition (%) in the horny layer (T. mentagrophytes; 2 h): 85,8% |
| 1.95 (≈ 8.22 µM) | Cc1cc(CC(C)CC(C)(C)C)n(O)c(=O)c1 (stereo not drawn) [Example 3] | 91,9% | 99,6% |  |
| 1.95 (≈ 9.41 µM) | Cc1cc(C2CCCCC2)n(O)c(=O)c1 [Example 4] | 88,0% | 98,0% |  |
| 1.95 (≈ 8.29 µM) | Cc1cc(CCC2CCCCC2)n(O)c(=O)c1 [Example 5] | 88,0% | 81,2% |  |
| 1.95 (≈ 8.89 µM) | Cc1cc(C2CC3CCC2C3)n(O)c(=O)c1 (stereo not drawn) [Example 6] | 88,0% | 79,9% |  |
